Here are results for 14 molecules from patent US8835470B2, “Mandelamide heterocyclic compounds” (Bristol-Myers Squibb Company, priority 2010, dated 2014).

Where a name gives a salt, the structure may show the parent alone.

Experiment [1] deals with S1P3 (Homo sapiens (Human), UniProt Q99500). The experiment in a line: Receptor [35S] GTPγS Binding Assay, S1P3. Format: biochemical. The note with it: membranes from EDG3-Ga15-bla HEK293T cells; * detection limit 62,500 nM, ** detection limit 32,500 nM. The procedure:
(§1) Receptor [35S] GTPγS Binding Assays
(§2) Compounds were loaded in a 384 FALCON® v-bottom plate (0.5 μl/well in a 3-fold dilution). Membranes prepared from S1P1/CHO cells or EDG3-Ga15-bla HEK293T cells were added to the compound plate (40 μl/well, final protein 3 μg/well) with MULTIDROP®. [^35S]GTP (1250 Ci/mmol, Perkin Elmer) was diluted in assay buffer: 20 mM HEPES, pH7.5, 10 mM MgCl2, 150 mM NaCl, 1 mM EGTA, 1 mM DTT, 10 μM GDP, 0.1% fatty acid free BSA, and 10 μg/ml Saponin to 0.4 nM. 40 μl of the [^35S] GTP solution was added to the compound plate with a final concentration of 0.2 nM. The reaction was kept at room temperature for 45 min. At the end of incubation, all the mixtures in the compound plate were transferred to a 384 well FB filter plates via GPCR robot system. The filter plate was washed with water 4 times by using the modified manifold Embla plate washer and dried at 60° C. for 45 min. 30 μl of MicroScint 20 scintillation fluid was added to each well for counting at Packard TOPCOUNT®. EC50 is defined as the agonist concentration that corresponds to 50% of the Ymax (maximal response) obtained for each individual compound tested.
A smaller value for GTPγS S1P1 EC50 value indicated greater activity for the compound in the GTPγS S1P1 binding assay. A larger value for the GTPγS S1P3 EC50 value indicated less activity in the GTPγS S1P3 binding assay.

In experiment [2] the target is T1, S1P1 (Homo sapiens (Human), UniProt P21453). The experiment in a line: Receptor [35S] GTPγS Binding Assay, S1P1. Format: biochemical. The note with it: for EC50: membranes from S1P1/CHO cells, [35S]GTP; for GTPγS S1P3/S1P1: ratio of GTPγS S1P3 EC50 to GTPγS S1P1 EC50, * and ** S1P3 value at detection limit. As to the method:
as §1
as §2, with “Membranes” for “Compounds were loaded in a 384 FALCON® v-bottom plate (0.5 μl/well in a 3-fold dilution). Membranes”, “TOPCOUNT®.” for “TOPCOUNT®. EC50 is defined as the agonist concentration that corresponds to 50% of the Ymax (maximal response) obtained for each individual compound tested.”
A larger value for the GTPγS S1P3 EC50 value indicated less activity in the GTPγS S1P3 binding assay.
Background: GTPγS resists hydrolysis and so accumulates on activated G proteins.

Experiment [3] addresses T1, S1P1. Briefly: S1P1 Binding Assay. The note with it: membranes from CHO cells expressing human S1P1; 33P-S1P ligand; rounded to two digits. The procedure: Membranes were prepared from CHO cells expressing human S1P1. Cells were dissociated in buffer containing 20 mM HEPES, pH 7.5, 50 mM NaCl, 2 mM EDTA and Protease Inhibitor cocktail (Roche), and disrupted on ice using the Polytron homogenizer. The homogenate was centrifuged at 20,000 rpm (48,000 G) and the supernatant was discarded. The membrane pellets were resuspended in buffer containing 50 mM HEPES, pH 7.5, 100 mM NaCl, 1 mM MgCl2, 2 mM EDTA and stored in aliquots at −80° C. after protein concentration determination. Membranes (2 μg/well) and 0.03 nM final concentration of ^33P-S1P ligand (1 mCi/ml, American Radiolabeled Chemicals) were added to the compound plates. Binding was performed for 45 minutes at room temperature, terminated by collecting the membranes onto GF/B filter plates, and radioactivity was measured by TOPCOUNT®. The competition data of the test compounds over a range of concentrations was plotted as percentage inhibition of radioligand specific binding. The IC50 is defined as the concentration of competing ligand needed to reduce specific binding by 50%.
The results in Table A were rounded to two digits.

T1 sequence (P21453 whole entry): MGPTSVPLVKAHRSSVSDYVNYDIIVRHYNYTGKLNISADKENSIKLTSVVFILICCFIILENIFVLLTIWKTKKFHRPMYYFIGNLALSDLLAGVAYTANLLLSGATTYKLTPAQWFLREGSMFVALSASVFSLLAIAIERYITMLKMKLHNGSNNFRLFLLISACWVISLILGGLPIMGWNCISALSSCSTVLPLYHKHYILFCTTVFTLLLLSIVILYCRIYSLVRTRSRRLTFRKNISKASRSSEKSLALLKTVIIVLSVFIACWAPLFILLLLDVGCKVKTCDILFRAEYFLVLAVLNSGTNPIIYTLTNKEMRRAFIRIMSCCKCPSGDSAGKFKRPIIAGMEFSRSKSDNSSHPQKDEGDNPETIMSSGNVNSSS
Sequence of S1P3 (Q99500 whole entry): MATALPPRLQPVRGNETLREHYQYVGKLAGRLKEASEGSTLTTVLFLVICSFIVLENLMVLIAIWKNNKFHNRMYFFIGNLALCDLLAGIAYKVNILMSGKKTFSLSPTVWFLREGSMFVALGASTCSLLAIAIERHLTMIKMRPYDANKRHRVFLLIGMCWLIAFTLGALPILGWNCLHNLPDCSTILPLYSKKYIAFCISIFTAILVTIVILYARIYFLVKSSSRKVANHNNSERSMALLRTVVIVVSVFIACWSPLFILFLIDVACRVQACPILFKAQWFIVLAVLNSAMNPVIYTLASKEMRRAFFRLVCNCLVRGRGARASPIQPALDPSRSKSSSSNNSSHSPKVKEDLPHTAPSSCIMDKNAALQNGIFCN

Broadly, the EC50 is the concentration that produces a half-maximal response. Low readings indicate greater potency, high ones weaker potency. For orientation: IC50 means the concentration needed to halve the response being measured. Lower therefore signals higher potency. `Cc1nnc(CNC(=O)C(O)c2ccc(-c3noc(-c4onc(-c5ccccc5)c4C(F)(F)F)n3)cc2)o1` (single isomer, unassigned) [Example 10, 2-Hydroxy-N-((5-methyl-1,3,4-oxadiazol-2-yl)methyl)-2-(4-(5-(3-phenyl-4-(trifluoromethyl)isoxazol-5-yl)-1,2,4-oxadiazol-3-yl)phenyl)acetamide]: the figures for the EC50 in experiment [1] and in experiment [2] were 13100 nM and 4.7 nM, respectively. In addition, the “GTPγS S1P3/S1P1” value in experiment [2] was found to be 2795. The same molecule returned a half-inhibitory concentration (IC50) in experiment [3] of 2 nM.

For the molecule `CCN(C)C(=O)C(O)c1ccc(-c2noc(-c3onc(-c4ccccc4)c3C(F)(F)F)n2)cc1` (racemic) [Example 24, (R/S)-N-Ethyl-2-hydroxy-N-methyl-2-(4-(5-(3-phenyl-4-(trifluoromethyl)isoxazol-5-yl)-1,2,4-oxadiazol-3-yl)phenyl)acetamide], the EC50 in experiment [1] is over 62500 nM. Further, in experiment [2], a half-maximal effect (EC50) was put at 1050 nM and the “GTPγS S1P3/S1P1” value was > 60*. In addition, in experiment [3], the IC50 came to 350 nM.

Regarding `O=C(NCc1ccccn1)C(O)c1ccc(-c2noc(-c3cnn(-c4ccccc4)c3C(F)(F)F)n2)cc1` (racemic) [Example 137, (R/S)-2-hydroxy-2-(4-(5-(1-phenyl-5-(trifluoromethyl)-1H-pyrazol-4-yl)-1,2,4-oxadiazol-3-yl)phenyl)-N-(pyridin-2-ylmethyl)acetamide], the EC50 was 11000 nM in experiment [1] and 41.4 nM in experiment [2]. Further, the “GTPγS S1P3/S1P1” value in experiment [2] amounted to 267. In addition, in experiment [3], the IC50 was 4.9 nM.

In experiment [1], `CCNC(=O)C(O)c1ccc(-c2noc(-c3noc(-c4ccccc4)c3C(F)(F)F)n2)cc1` (racemic) [Example 67, (R/S)-N-Ethyl-2-hydroxy-2-(4-(5-(5-phenyl-4-(trifluoromethyl)isoxazol-3-yl)-1,2,4-oxadiazol-3-yl)phenyl)acetamide] registered an EC50 of 17500 nM. Moreover, in experiment [2], a half-maximal response (EC50) required 17.4 nM and the “GTPγS S1P3/S1P1” value came out at 1006. In addition, in experiment [3], the IC50 came to 17 nM.

Take `O=C(NCc1cc2ccccc2[nH]1)C(O)c1ccc(-c2noc(-c3onc(-c4ccccc4)c3C(F)(F)F)n2)cc1` (racemic) [Example 86, (R/S)-N-((1H-Indol-2-yl)methyl)-2-hydroxy-2-(4-(5-(3-phenyl-4-(trifluoromethyl)isoxazol-5-yl)-1,2,4-oxadiazol-3-yl)phenyl)acetamide]: the values for the 50% effective concentration (EC50) in experiment [1] and in experiment [2] were over 31200 nM and 1560 nM, respectively. Also, in experiment [2], the “GTPγS S1P3/S1P1” value is > 20**. The same molecule returned a concentration for half-maximal inhibition (IC50) in experiment [3] of 180 nM.

As to `O=C(O)CCNC(=O)C(O)c1ccc(-c2noc(-c3onc(-c4ccccc4)c3C(F)(F)F)n2)cc1` (racemic) [Example 22, (R/S)-3-(2-Hydroxy-2-(4-(5-(3-phenyl-4-(trifluoromethyl)isoxazol-5-yl)-1,2,4-oxadiazol-3-yl)phenyl)acetamido)propanoic acid], the EC50 in experiment [1] was over 62500 nM. Also, in experiment [2], the 50% effective concentration (EC50) worked out at 103 nM and the “GTPγS S1P3/S1P1” value is recorded as > 604*. The half-maximal inhibitory concentration (IC50) in experiment [3] turned out to be 29 nM.

For the molecule `O=C(NC1CCC1)C(O)c1ccc(-c2noc(-c3onc(-c4ccccc4)c3C(F)(F)F)n2)cc1` (racemic) [Example 116, (R/S)-N-Cyclobutyl-2-hydroxy-2-(4-(5-(3-phenyl-4-(trifluoromethyl)isoxazol-5-yl)-1,2,4-oxadiazol-3-yl)phenyl)acetamide], the EC50 in experiment [1] is over 62500 nM. For the same molecule, in experiment [2], the “GTPγS S1P3/S1P1” value is on record as > 387*.

Regarding `CCNC(=O)C(O)c1ccc(-c2noc(-c3cnn(-c4ccccc4)c3C(F)(F)F)n2)cc1` (racemic) [Example 61, (R/S)-N-Ethyl-2-hydroxy-2-(4-(5-(1-phenyl-5-(trifluoromethyl)-1H-pyrazol-4-yl)-1,2,4-oxadiazol-3-yl)phenyl)acetamide], in experiment [1], the EC50 is over 62500 nM. Also, in experiment [2], the 50% effective concentration (EC50) amounted to 34.2 nM and the “GTPγS S1P3/S1P1” value is on record as > 1827*. For the same molecule, the IC50 in experiment [3] worked out at 8.5 nM.

On to `O=C(NCc1nc2ccccc2[nH]1)C(O)c1ccc(-c2noc(-c3onc(-c4ccccc4)c3C(F)(F)F)n2)cc1` (racemic) [Example 90, (R/S)-N-((1H-Benzo[d]imidazol-2-yl)methyl)-2-hydroxy-2-(4-(5-(3-phenyl-4-(trifluoromethyl)isoxazol-5-yl)-1,2,4-oxadiazol-3-yl)phenyl)acetamide], for which the EC50 was 5380 nM in experiment [1] and 31.5 nM in experiment [2]. Moreover, in experiment [2], the “GTPγS S1P3/S1P1” value was 171. In experiment [3], this molecule yielded a 50% inhibitory concentration (IC50) of 13 nM.

In the case of `CNC(=O)[C@H](CCc1ccccc1)NC(=O)C(O)c1ccc(-c2noc(-c3onc(-c4ccccc4)c3C(F)(F)F)n2)cc1` (mixture of isomers) [Example 26, (R/S)-(2S)-2-(2-Hydroxy-2-(4-(5-(3-phenyl-4-(trifluoromethyl)isoxazol-5-yl)-1,2,4-oxadiazol-3-yl)phenyl)acetamido)-N-methyl-4-phenylbutanamide], the half-maximal effective concentration (EC50) in experiment [1] amounted to 6200 nM. In experiment [2], the EC50 turned out to be 4280 nM and the “GTPγS S1P3/S1P1” value is recorded as 1.4. For the same molecule, the IC50 in experiment [3] is 910 nM.

In turn, `O=C(NC[C@@H]1CCCC[C@H]1O)C(O)c1ccc(-c2noc(-c3cnn(-c4ccccc4)c3C(F)(F)F)n2)cc1` (mixture of isomers) [Example 152, (R/S)-2-hydroxy-N-(((1S,2R)-2-hydroxycyclohexyl)methyl)-2-(4-(5-(1-phenyl-5-(trifluoromethyl)-1H-pyrazol-4-yl)-1,2,4-oxadiazol-3-yl)phenyl)acetamide] returned a 50% effective concentration (EC50) in experiment [1] of 11200 nM. Further, in experiment [2], the concentration for a half-maximal effect (EC50) is 517 nM and the “GTPγS S1P3/S1P1” value is on record as 22. The concentration for half-maximal inhibition (IC50) in experiment [3] stood at 260 nM.

For `CC(C)(C)OC(=O)NCCNC(=O)C(O)c1ccc(-c2noc(-c3onc(-c4ccccc4)c3C(F)(F)F)n2)cc1` (racemic) [Example 51, (R/S)-tert-Butyl 2-(2-hydroxy-2-(4-(5-(3-phenyl-4-(trifluoromethyl)isoxazol-5-yl)-1,2,4-oxadiazol-3-yl)phenyl)acetamido)ethylcarbamate], the EC50 came to 13600 nM in experiment [1] and 89.4 nM in experiment [2]. In experiment [3], the 50% inhibitory concentration (IC50) stood at 31 nM.

`O=C(NCCO)C(O)c1ccc(-c2noc(-c3noc(-c4ccccc4)c3C(F)(F)F)n2)cc1` (racemic) [Example 62, (R/S)-2-Hydroxy-N-(2-hydroxyethyl)-2-(4-(5-(5-phenyl-4-(trifluoromethyl)isoxazol-3-yl)-1,2,4-oxadiazol-3-yl)phenyl)acetamide] gave an EC50 in experiment [1] of 9210 nM. Also, in experiment [2], the half-maximal effective concentration (EC50) was found to be 12.6 nM and the “GTPγS S1P3/S1P1” value was determined as 731. For the same molecule, the half-maximal inhibitory concentration (IC50) in experiment [3] came out at 3.2 nM.

As for `O=C(NCC1CCCN1)C(O)c1ccc(-c2noc(-c3onc(-c4ccccc4)c3C(F)(F)F)n2)cc1` (racemic) [Example 88, (R/S)-2-Hydroxy-2-(4-(5-(3-phenyl-4-(trifluoromethyl)isoxazol-5-yl)-1,2,4-oxadiazol-3-yl)phenyl)-N-(pyrrolidin-2-ylmethyl)acetamide, TFA], in experiment [1], the EC50 is 5940 nM. Also, in experiment [2], a half-maximal effect (EC50) was put at 102 nM and the “GTPγS S1P3/S1P1” value turned out to be 58. The molecule further returned an IC50 in experiment [3] of 29 nM.
